Patent US12252714B2, “Halogenation of complex organic compounds” (REGENTS OF THE UNIVERSITY OF MICHIGAN, priority 2018, dated 2025)

Legend:
MalA = biological target: T1, MalA (Malbranchea aurantiaca, UniProt L0E155); test: Michaelis-Menten kinetics of MalA chlorination reactions; format: biochemical
T1 construct: The malA coding region was amplified from the cDNA template by PCR; made in house; host or cells: E. coli BL21 (DE3) with pGro7 (GroEL/GroES) chaperone plasmid
Method: Substrates malbrancheamide B (compound 3) and isomalbrancheamide B (compound 4) to product malbrancheamide (compound 1). Reactions were set up in a total volume of 250 μL with the following components: 1.1 μM MalA, 44 μM HpaC flavin reductase, 100 μM FAD, 50 mM NaCl, 3.6 mM NADH, and a variety of substrate concentrations ranging from 1 μM to 60 μM. Reactions were quenched with methanol by removing 50 μL at each time point (2, 5, 10, 15 minutes). Reactions were analyzed on a Schimadzu HPLC with the following LC time program: 40% acetonitrile for 1 minute, gradient over 6 minutes from 40-85% acetonitrile, 85% acetonitrile for 1 minute, gradient over 1 minute to 40% acetonitrile, re-equilibration to 40% acetonitrile for 3 minutes. The absorbance was measured at 240 nm and the mobile phase consisted of water and acetonitrile. A Phenomenex Lux cellulose-3, cellulose Tris (4-methylbenzoate) 250×4.6 mm column was used for separation. GraphPad Prism (Version 6.01) software was used to plot the initial velocities against the substrate concentration and to determine the kinetic constants kcat and Km.
Substrate premalbrancheamide (compound 2) to products isomalbrancheamide B (compound 4) and malbrancheamide B (compound 3). Reactions were set up in a total volume of 250 μL with the following components: 1.8 μM MalA, 44 μM HpaC, 100 μM FAD, 50 mM NaCl, 3.6 mM NADH, and a variety of substrate concentrations ranging from 5 μM to 80 μM. Reactions were quenched with 100 μL methanol by removing 50 μL at each time point (2, 5, 7, 10 minutes). Reactions were analyzed on a Schimadzu HPLC with the following LC time program: 34% acetonitrile for 1 minute, gradient over 11 minutes to 62% acetonitrile, 62% acetonitrile for 30 seconds, gradient over 30 seconds to 34% acetonitrile, re-equilibration to 34% for 3 minutes. The absorbance was measured at 240 nm and the mobile phase consisted of water and acetonitrile. A Phenomenex Lux cellulose-3 Tris (4-methylbenzoate) 250×4.6 mm column was used for separation.
Michaelis-Menten kinetic parameters were determined for the natural chlorination reactions of MalA. […] These catalytic efficiencies are fairly high compared to those of the eukaryotic FDH Rdc2, which are 2.93 min−1 mM−1 for the initial chlorination reaction and 0.11 min−1 mM−1 for the second chlorination reaction.^4

MalA′ = test: Co-crystallization with MalA′; format: binding, Malbranchea graminicola
Method: Crystallization conditions. […] The purified MalA′ was dialyzed overnight into a 20 mM HEPES pH 7 buffer with 200 mM NaCl or 300 mM NaCl to remove glycerol, and then supplemented with an equimolar quantity of FAD. […] For active site complexes with compounds 2, 3, and 4, MalA′ was pre-incubated with a four-fold molar excess of substrate. Crystals were grown by vapor diffusion from 1:2 mixtures of 5 mg/mL MalA′ pre-incubated with compound 2, 3 or 4 and a well solution containing 2 M (NH4)2SO4, 0.2 M Li2SO4, 5 mM CdCl2, and 0.1 M Bis-Tris pH 5.5. Crystals were cryoprotected in well solution augmented with 10% glycerol and flash-cooled in liquid nitrogen.

[1] = second chlorination, to compound 1
[2] = chlorination, compound 2 to compound 3
[3] = chlorination, compound 2 to compound 4

T1 sequence (L0E155 whole entry): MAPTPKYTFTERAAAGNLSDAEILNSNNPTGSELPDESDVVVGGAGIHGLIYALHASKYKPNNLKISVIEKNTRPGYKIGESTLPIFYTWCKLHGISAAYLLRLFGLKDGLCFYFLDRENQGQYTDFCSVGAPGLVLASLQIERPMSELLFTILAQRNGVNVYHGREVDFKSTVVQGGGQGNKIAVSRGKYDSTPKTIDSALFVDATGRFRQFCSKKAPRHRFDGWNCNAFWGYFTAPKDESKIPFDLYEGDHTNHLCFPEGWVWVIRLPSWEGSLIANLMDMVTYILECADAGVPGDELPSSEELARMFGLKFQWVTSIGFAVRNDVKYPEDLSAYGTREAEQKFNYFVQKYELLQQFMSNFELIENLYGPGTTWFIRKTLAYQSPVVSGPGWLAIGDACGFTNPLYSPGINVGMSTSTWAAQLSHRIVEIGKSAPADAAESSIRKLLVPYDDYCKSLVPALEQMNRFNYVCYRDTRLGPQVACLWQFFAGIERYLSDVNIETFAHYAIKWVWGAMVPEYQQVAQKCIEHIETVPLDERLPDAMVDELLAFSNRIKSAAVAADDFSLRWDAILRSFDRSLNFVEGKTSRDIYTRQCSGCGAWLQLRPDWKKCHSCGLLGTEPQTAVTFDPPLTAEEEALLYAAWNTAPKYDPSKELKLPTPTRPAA

`CC1(C)c2[nH]c3cc(Cl)ccc3c2C[C@@]23CN4CCC[C@]4(C[C@@H]12)C(=O)N3` [compound 3, malbrancheamide B] gave a Km (MalA; [1]) of 4.4 µM and a kcat (MalA; [1]) of 0.002 s⁻¹.

For `CC1(C)c2[nH]c3cc(Cl)c(Cl)cc3c2C[C@@]23CN4CCC[C@]4(C[C@@H]12)C(=O)N3` [compound 1, malbrancheamide], the “binding in MalA′ crystals” value (MalA′) was “did not bind in crystals”.

`CC1(C)c2[nH]c3ccccc3c2CC23CN4CCCC4(CC21)C(=O)N3` (stereo not drawn) [compound 2, premalbrancheamide] gave a Km (MalA; [2]) of 7 µM, a kcat (MalA; [2]) of 0.0013 s⁻¹ and a Km (MalA; [3]) of 7.5 µM. The kcat (MalA; [3]) was 0.0015 s⁻¹.

Work on `CC1(C)c2[nH]c3ccc(Cl)cc3c2C[C@@]23CN4CCC[C@]4(C[C@@H]12)C(=O)N3` [compound 4, isomalbrancheamide B] yielded a Km (MalA; [1]) of 4 µM and a kcat (MalA; [1]) of 0.002 s⁻¹.
